Assay results from patent publication US8367357B2, “Two secretory luciferases” (National Institute of Advanced Industrial Science and …, priority 2006, dated 2013).

What was measured:
[1] = residual activity / half life of coelenterazine in solutions with or without antioxidant; format: physicochemical; details: 10 μM coelenterazine, 0.1M Tris-HCl pH 7.4/0.3 M Sodium ascorbate vs NaCl, Na2SO3, Thiourea solutions
Description: The following four solutions were prepared, coelenterazine was dissolved at a final concentration of 10 μM, and the residual activity of coelenterazine was examined to determine a half life. In FIG. 7, the half life is shown in the solution of (1) 0.1M Tris-HCl pH 7.4/0.3 M NaCl, (2) 0.1M Tris-HCl pH 7.4/0.3 M Sodium ascorbate, (3) 0.1M Tris-HCl pH 7.4/0.2 M Na2SO3 or (4) 0.1M Tris-HCl pH 7.4/0.2 M Thiourea. […] It is desirable to add sodium ascorbate in the dual reporter assay.

[2] = self-luminescence activity of coelenterazine in 10% FBS solution; format: physicochemical; details: 10 μM or 100 μM coelenterazine, 10% FBS medium, with sodium ascorbate salt solution
Description: The following two solutions were prepared, coelenterazine was dissolved at a final concentration of 10 μM or 100 μM, the solution was mixed with the medium for animal cells (solution containing 10% FBS), and the luminescence for 10 seconds was measured as the background. […] The luminescence activity (RLU: relative light unit) was measured, the ratio of its actually measured value to the self-luminescence was calculated and correctively shown in FIG. 8.

copepod luciferase = assay: ratio of luminescence to self-luminescence by copepod luciferase; format: biochemical; details: 10 μM or 100 μM coelenterazine, copepod luciferase medium with 10% FBS, with sodium ascorbate salt solution
Description: Using the medium (containing 10% FBS) of copepod luciferase secreted from the animal cells, the coelenterazine solution prepared in Example 8 was dissolved at a final concentration of 10 μM or 100 μM, and the resulting solution was mixed with the medium (containing 10% FBS) for the animal cells at 1:1 (volume ratio), and the luminescence for 10 seconds was measured as the background activity. At that time, a reaction solution was 0.1M Tris-HCl pH 7.4/0.3 M, and the effect with or without the addition of 0.3 M […] was examined. The luminescence activity was measured, the ratio of the actually measured value to the self-luminescence (signal to background) was calculated, and collectively shown in FIG. 9. […] This way, the antioxidant has almost no effect on the oxidation reaction by luciferase and could reduce only the background.

half life [1]: widely prolonged | self-luminescence (background, RLU) [2]: reduction of the self-luminescence | ratio of the luminescence to the self-luminescence (signal to background) (copepod luciferase): at least two times or more
SMILES: Oc1ccc(Cc2nc3c(Cc4ccccc4)nc(-c4ccc(O)cc4)cn3c2O)cc1 [coelenterazine]
